{"source": "paper PMC10080078", "about": "“Use of phage display biopanning as a tool to design CAR-T cells against glioma stem cells” (Frontiers in Oncology, 2023)", "molecules": {"B1": {"name": "biotinylated dual peptide EV (EV-b) (peptide)", "peptide": "AWEFYFPGGGGSGGGGSGGGGSSSQPFWS", "modifications": "also: biotin conjugated, position not given here", "notes": "29 amino acids; also called EV-biotinylated peptide; source: synthetic peptide (LifeTein)"}, "B2": {"name": "EV peptide as used in surface plasmon resonance (peptide)", "peptide": "AWEFYFPGGGGSGGGGSGGGGSSSQPFWS", "notes": "dual peptide EV; the SPR methods say only 'EV peptide'; source: synthetic peptide"}}, "key": {"N-cadherin [1]": {"tested_on": "N-cadherin", "experiment": "Immunoblot of peptide pull-down", "assay_type": "binding", "settings": "biotinylated peptide 40 μg on streptavidin agarose", "description": "Cells were lysed using the IP Lysis Buffer Protocol (Pierce, Waltham, MA) as described by the manufacturer. Biotinylated peptides (EV-b and NT-b, 40 μg) were incubated with 100 μL of streptavidin agarose resin at 4°C for 1 hour on a rotator to generate the peptide-coupled streptavidin agarose resin. The protein samples were pre-cleared by incubation of 50 μL of NT-streptavidin agarose resins (4°C on rotator for 1 hour). After centrifugation, the pre-cleared samples were incubated with 150 μL of EV-coupled streptavidin agarose resin at 4°C overnight on rotator. After PBS wash, the resin was pelleted and sent for mass spectrometry analysis (see details in Supplementary Methods ) or eluted with 4x Laemmli Sample Buffer (Bio-Rad, Hercules, CA) containing 1X DTT reducing agent (dithiothreitol, Cell Signaling Technology, Danvers, MA) and boiled for SDS-PAGE. Pulled-down proteins were then separated with a Novex™ WedgeWell™ (ThermoFisher Scientific, Waltham, MA) and transferred to polyvinylidene fluoride (PVDF) membranes (Millipore, Burlington, MA). Membrane-transferred proteins were immunoblotted with an antibody recognizing N-cadherin (1/10000, NBP2-01498, Novus Biologicals, Littleton, CO) ( Supplemental Figure 2 )."}, "[2]": {"biological_target": "T1, N-cadherin extracellular domain, amino acids 160-724 (Homo sapiens, UniProt P19022)", "T1 construct": "Recombinant Human N-Cadherin extracellular domain, amino acids 160-724; purchased R&D Systems 1388NC050", "T1 sequence (P19022 160-724)": "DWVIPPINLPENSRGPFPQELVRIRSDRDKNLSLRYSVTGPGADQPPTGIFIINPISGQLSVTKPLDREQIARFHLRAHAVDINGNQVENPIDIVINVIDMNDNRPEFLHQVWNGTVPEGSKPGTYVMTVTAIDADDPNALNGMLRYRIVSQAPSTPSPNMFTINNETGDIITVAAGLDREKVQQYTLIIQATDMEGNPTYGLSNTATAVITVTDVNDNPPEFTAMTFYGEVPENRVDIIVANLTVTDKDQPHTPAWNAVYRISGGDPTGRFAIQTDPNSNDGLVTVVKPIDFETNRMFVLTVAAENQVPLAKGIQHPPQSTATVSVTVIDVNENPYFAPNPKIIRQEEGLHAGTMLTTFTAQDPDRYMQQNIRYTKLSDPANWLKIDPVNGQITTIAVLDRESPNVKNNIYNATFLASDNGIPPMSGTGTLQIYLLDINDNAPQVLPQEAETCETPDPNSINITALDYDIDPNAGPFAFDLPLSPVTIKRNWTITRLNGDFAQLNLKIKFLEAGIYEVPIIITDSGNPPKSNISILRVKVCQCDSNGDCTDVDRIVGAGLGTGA", "experiment": "Surface plasmon resonance, single cycle kinetics (Biacore T200)", "assay_type": "binding", "description": "The direct binding measurements between N-cadherin and EV peptide by surface plasmon resonance was performed by immobilizing N-cadherin protein (Recombinant Human N-Cadherin extracellular domain, amino acids 160-724, 1388NC050, R&D Systems, Minneapolis, MN) to a CM5 sensor chip surface docked in Biacore T200 (Cytiva, Marlborough, MA) at 25°C using an amine-coupling method. Prior to immobilization, the chip was primed and equilibrated with a running buffer containing 20 mM HEPES, pH 7.4, 1 mM TCEP, 2 mM CaCl2 and 150 mM NaCl at a flow rate of 10 µL/min. The carboxymethyl surface of the CM5 chip was manually activated for 7 minutes using a 1:1 ratio of 0.4 M 1-ethyl-3-(3-[…]) carbodiimide hydrochloride (EDC) and 0.1 M N-hydroxysuccinimide (NHS) to achieve a density of about 10,000 RU per flow cell. N-cadherin protein stock (1.12 µM) was diluted to 100 nM in 10 mM sodium acetate, pH 4.5, and manually injected over the surface at the same flow rate. […]\nFor kinetic titration experiments, the same running buffer was used except with the inclusion of 5% DMSO. […] Sensorgrams were solvent corrected, buffer referenced, and the on-rate, off-rate, and equilibrium binding constants were calculated from the sensorgrams by global fitting of a 1:1 binding model, using analysis software (version 3.0) provided with Biacore T200 instrument (Cytiva)."}, "GSCs": {"tested_on": "GSCs", "settings": "ref ([22], [23]), cited from earlier work; for targeting of GSCs in vitro: previously demonstrated", "description": "We have previously isolated glioblastoma stem cell targeting peptides through a combination of in vitro and in vivo biopanning strategies ([22], [23]). In vitro biopanning was performed by screening a random 7 amino acid phage peptide library against differentiated stem cells and glioblastoma stem cells grown in culture to isolate GSC-specific targeting peptides ( Figure 1A ). Two types of in vivo biopanning were performed, one against mice with intracranial GBM xenografts ( Figure 1B ) and one with subcutaneous flank xenografts ( Figure 1C ). Two peptides were selected for use in subsequent e ... || Figure 1 Peptide selection. Schematic representation of phage display strategies used to isolate the GSC-targeting peptides E (AWEFYFP) and V (SSQPFWS). […] Authors’ elaboration based on prior data from ([22], [23])."}, "[3]": {"tested_on": "subcutaneous flank GBM xenografts", "settings": "ref ([22], [23]); cited from earlier work", "description": "(§1) Figure 1 Peptide selection. Schematic representation of phage display strategies used to isolate the GSC-targeting peptides E (AWEFYFP) and V (SSQPFWS). […] Authors’ elaboration based on prior data from ([22], [23])."}, "[4]": {"tested_on": "intracranial GBM xenografts", "settings": "ref ([22], [23]); cited from earlier work", "description": "as §1"}, "N-cadherin [5]": {"tested_on": "N-cadherin", "settings": "by itself; ref manuscript under review; cited from earlier work", "description": "Our study has illustrated the utility and feasibility of designing novel antigen-binding domains for CAR-T cells by using two short peptides of just seven amino acids each to induce functional recognition of GSCs."}, "[6]": {"biological_target": "T2, Recombinant Human N-Cadherin extracellular domain, amino acids 160-724 (human, UniProt P19022 160-724)", "T2 construct": "N-cadherin (CDH2), human, extracellular domain, amino acids 160-724; also called recombinant N-cadherin; recombinant extracellular N-cadherin protein; source: bought: R&D Systems", "T2 sequence (looked up)": "T1 sequence (P19022 160-724)", "experiment": "ELISA; plates coated with 2.5 μg/mL recombinant N-cadherin; biotinylated peptides at different concentrations in PBS-2%-BSA, 1 hour at RT; streptavidin-HRP", "settings": "both partners purified"}, "[7]": {"biological_target": "T2, Recombinant Human N-Cadherin …", "experiment": "SPR; N-cadherin amine-coupled to CM5 chip (about 3500 RU), Biacore T200, 25°C; 20 mM HEPES pH 7.4, 1 mM TCEP, 2 mM CaCl2, 150 mM NaCl, 5% DMSO; single cycle kinetics, peptide 2 to 167 µM; 1:1 binding model", "settings": "both partners purified"}}, "note": "Where “and” joins values, the source holds several entries; their conditions need not be identical. Equal values may be shown once. Where no end group is shown, it is not given here.", "data": [{"molecule": "FAYPEWFGGGGSGGGGSGGGGSPSWSFSQ [NT, reference compound]", "values": [{"measurement": "N-cadherin antibody signal in peptide pull-down immunoblot", "setting": "N-cadherin [1]", "result": "absent"}, {"measurement": "SPR response / KD of NT peptide", "setting": "[2]; identical condition, NT peptide in SPR is GGGSGGG, could not be fitted for reliable extraction of the KD", "result": "did not exhibit significant resonance units"}]}, {"molecule": "AWEFYFPGGGGSGGGGSGGGGSSSQPFWS [EV]", "values": [{"measurement": "kon", "setting": "[2]; CM5 chip, 25°C, 20 mM HEPES pH 7.4, 1 mM TCEP, 2 mM CaCl2, 150 mM NaCl, 5% DMSO, EV 2 to 167 µM, 1:1 model, first run, read-out: on-rate (ka)", "result": 2620, "unit": "M⁻¹ s⁻¹"}]}, {"molecule": "SSQPFWS [V, isolated from the subcutaneous flank biopanning]", "values": [{"measurement": "targeting of GSCs in vitro", "setting": "GSCs", "result": "specificity for targeting GSCs in vitro"}, {"measurement": "enrichment in in vivo biopanning on subcutaneous tumors", "setting": "[3]", "result": "one of the most enriched"}]}, {"molecule": "AWEFYFP [isolated from both the in vitro and intracranial in vivo biopanning]", "values": [{"measurement": "targeting of GSCs in vitro", "setting": "GSCs", "result": "specificity for targeting GSCs in vitro"}, {"measurement": "enrichment in in vitro biopanning", "setting": "GSCs", "result": "one of the most enriched"}, {"measurement": "enrichment in in vivo biopanning, intracranial", "setting": "[4]", "result": "one of the most enriched"}, {"measurement": "binding of single peptide E to N-cadherin", "setting": "N-cadherin [5]", "result": "positive binding to N-cadherin"}]}, {"molecule": "B1", "values": [{"measurement": "binding result", "setting": "[6]", "result": "binds"}]}, {"molecule": "B2", "values": [{"measurement": "Kd", "setting": "[7]", "result": "9.4 µM and 8.45 µM and 7.5 µM"}, {"measurement": "koff", "setting": "[7]", "result": 0.0196, "unit": "s⁻¹"}]}]}
